Experiments:
[1] = tested on: Mo7e cells (SCF dependent); assay: c-Kit ligand (SCF) dependent cell proliferation; type: cell-based; conditions: SCF 50 ng/ml, 72 hours, MTS
Description: SCF dependent cell proliferation:
Mo7e cells (SCF dependent) were plated into 96-well plates at 15000 per well and incubated in 1640 medium with 10% FBS and SCF (50 ng/ml) for 24 hours. Compounds were added and incubated for 72 hours at 37° C. in CO2 incubator. The effects on proliferation were determined by addition of MTS reagent (Promega) according to the instruction, incubation for 2 hours at 37° C. in CO2 incubator, and record the absorbance at 490 nm using an ELISA plate reader.

PDGFRβ NIH-3T3 cells = assay: PDGF ligand-dependent cell proliferation; type: cell-based; conditions: Mus musculus, NIH3T3; NIH-3T3 expressing human PDGFRβ, PDGF BB 50 ng/ml, 72 hours, MTS
Description: Measurement of in vivo inhibition on receptor ligand-dependent cell proliferation: PDGF dependent cell proliferation:
NIH-3T3 mouse fibroblasts cell line engineered to stably express human PDGFRβ was constructed and used to evaluate PDGF dependent cell proliferation. PDGFRβ NIH-3T3 cells were plated into 96-well plates at 5,000 per well and incubated with serum-free medium for 24 hours. Compounds and PDGF BB (50 ng/ml) were added and incubated for 72 hours in serum-free medium. The effects on proliferation were determined by addition of MTS reagent (Promega) according to the instruction, incubation for 2 hours at 37° C. in CO2 incubator, and record the absorbance at 490 nm using an ELISA plate reader.

c-Kit = target: T1, c-Kit (Homo sapiens, UniProt P10721); assay: c-KIT kinase ELISA bioassay; type: biochemical; conditions: ELISA kinase assay, 20 μM ATP
T1 construct: purchased Cell Signaling
T1 sequence (P10721 26-976): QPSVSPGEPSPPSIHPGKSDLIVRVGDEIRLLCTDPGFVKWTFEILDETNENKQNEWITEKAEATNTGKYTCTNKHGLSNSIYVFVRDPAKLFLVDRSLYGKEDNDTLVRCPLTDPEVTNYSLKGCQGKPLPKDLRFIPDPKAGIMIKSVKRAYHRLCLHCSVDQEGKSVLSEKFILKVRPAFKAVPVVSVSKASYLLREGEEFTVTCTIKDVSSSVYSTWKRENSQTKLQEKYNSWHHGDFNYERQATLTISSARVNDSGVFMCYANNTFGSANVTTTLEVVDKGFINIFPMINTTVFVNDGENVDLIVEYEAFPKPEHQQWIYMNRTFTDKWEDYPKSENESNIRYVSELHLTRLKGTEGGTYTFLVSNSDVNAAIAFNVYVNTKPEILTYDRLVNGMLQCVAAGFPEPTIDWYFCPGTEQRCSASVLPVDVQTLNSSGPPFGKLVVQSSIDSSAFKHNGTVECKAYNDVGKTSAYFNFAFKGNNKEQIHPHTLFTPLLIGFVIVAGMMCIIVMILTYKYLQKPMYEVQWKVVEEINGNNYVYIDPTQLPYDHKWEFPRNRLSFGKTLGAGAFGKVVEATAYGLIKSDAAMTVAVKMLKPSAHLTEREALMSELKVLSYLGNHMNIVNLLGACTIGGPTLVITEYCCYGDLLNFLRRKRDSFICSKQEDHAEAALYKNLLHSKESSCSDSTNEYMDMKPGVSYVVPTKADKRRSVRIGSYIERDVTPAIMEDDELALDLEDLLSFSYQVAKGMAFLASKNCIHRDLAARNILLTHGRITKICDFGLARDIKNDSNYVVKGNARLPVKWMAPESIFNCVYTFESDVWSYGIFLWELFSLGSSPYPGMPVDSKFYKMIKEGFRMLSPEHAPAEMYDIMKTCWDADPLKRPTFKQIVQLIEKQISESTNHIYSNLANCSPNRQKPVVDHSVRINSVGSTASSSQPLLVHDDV
Description: This assay is used to measure in vitro kinase activity of c-KIT in an ELISA assay.
• 1. Streptavidin coated, 96-well, white plate • 2. Phospho-Tyrosine Monoclonal Antibody (P-Tyr-100) (Cell Signaling) • 3. HRP-labeled anti-mouse IgG (Upstate) • 4. HTScan™ Tyrosine Kinase Buffer (4×) • 5. DTT (1000×. 1.25 M) • 6. ATP (10 mM) • 7. KDR (Tyr996) Biotinylated Peptide Substrate (Cell Signaling) • 8. c-KIT Kinase (recombinant, human) (Cell Signaling) • 9. Wash Buffer: 1× PBS, 0.05% Tween-20 (PBS/T) • 10. Bovine Serum Albumin (BSA) • 11. Stop Buffer: 50 mM EDTA pH 8 • 12. Enhanced chemiluminescence (ECL) (Amersham) Procedure for performing the assay in 96-well plate: • 1. Add 10 μl 10 mM ATP to 1.25 ml 6 μM substrate peptide. Dilute the mixture with dH20 to 2.5 ml to make 2× ATP/substrate cocktail ([ATP]=40 μM, [substrate]=3 μm). • 2. Immediately transfer enzyme from −80° C. to ice. Allow enzyme to thaw on ice. • 3. Microcentrifuge briefly at 4° C. to bring liquid to the bottom of the vial. Return immediately to ice. • 4. Add 10 μl of DTT (1.25 M) to 2.5 ml of 4× HTScan™ Tyrosine Kinase Buffer (240 mM HEPES pH 7.5, 20 mM MgCl2, 20 mM MnCl2, 12 μM Na3VO4) to make DTT/Kinase buffer. • 5. Transfer 1.25 ml of DTT/Kinase buffer to enzyme tube to make 4× reaction cocktail ([enzyme]=4 ng/μL in 4× reaction cocktail). • 6. Incubate 12.5 μl of the 4× reaction cocktail with 12.5 μl/well of prediluted compound of interest (usually around 10 μM) for 5 minutes at room temperature. • 7. Add 25 μl of 2× ATP/substrate cocktail to 25 μl/well preincubated reaction cocktail/compound. Final Assay Conditions for a 50 μl Reaction: • 60 mM HEPES pH 7.5 • 5 mM MgCl2 • 5 mM MnCl2 • 3 μM Na3VO4 • 1.25 mM DTT • 20 μM ATP • 1.5 μM peptide • 100 ng c-KIT Kinase • 8. Incubate reaction plate at room temperature for 30 minutes. • 9. Add 50 μl/well Stop Buffer (50 mM EDTA, pH 8) to stop the reaction. • 10. Transfer 25 μl of each reaction and 75 μl dH2O/well to a 96-well streptavidincoated plate and incubate at room temperature for 60 minutes. • 11. Wash three times with 200 μl/well PBS/T • 12. Dilute primary antibody, Phospho-Tyrosine Monoclonal Antibody (P-Tyr-100), 1:1000 in PBS/T with 1% BSA. Add 100 μl/well of primary antibody. • 13. Incubate at room temperature for 60 minutes. • 14. Wash three times with 200 μl/well PBS/T • 15. Dilute HRP labeled anti-mouse IgG 1:500 in PBS/T with 1% BSA. Add 100 μl/well diluted antibody. • 16. Incubate at room temperature for 30 minutes. • 17. Wash five times with 200 μl/well PBS/T. • 18. Add 100 μl/well ECL Solution. • 19. Detect luminescence with appropriate Plate Reader. Flt3 Bioassay

Class I HDAC = assay: P21 reporter assay in HeLa cells; type: cell-based, human; conditions: for Class I HDAC (P21 reporter assay) % Max Resp of CS055 at 3 μM: relative to CS055 at 3 μM; for EC50: 24 hours
Description: (§1) HDAC subtype selectivity inhibition assay of tested compounds was carried out by several reporter gene assays experiments. Briefly, HeLa cells were seeded in 96-well plates the day before transfection to give a confluence of 50-80%. Cells were transfected with one of reporter gene plasmid containing a promoter sequence or response element upstream of a luciferase gene construct using FuGene6 transfection reagent according to the manufacturer's instruction (Roche). The promoters or response elements including p21-promoter, gdf11-promoter, MEF-binding element (MEF2), Nur77-promoter were fused upstream to the luciferase gene reporter construct. For normalizing the transfection efficiency, a GFP expression plasmid was cotransfected. Cells were allowed to express protein for 24 hours followed by addition of individual compounds or the vehicle (DMSO). 24 hours later the cells were harvested, and the luciferase assay and GFP assay were performed using corresponding assay kits according to the manufacturer's instructions (Promega).

HDAC4/5 = assay: MEF2 reporter assay in HeLa cells; type: cell-based, human; conditions: for HDAC4/5 (MEF2 reporter assay) % Max Resp of CS055 at 3 μM: relative to CS055 at 3 μM; for EC50: 24 hours
Description: as §1

Hut-78 = assay: Tumor cell proliferation (MTS), Hut-78; type: cell-based; conditions: Homo sapiens, HuT78, Hut-78, 72 hours
Description: (§2) Measurement of in vivo cell proliferation:
(§3) Tumor cells were trypsinized and plated into 96-well plates at 3,000 per well and incubated in complete medium with 10% FBS for 24 hours. Compounds were added over a final concentration range of 100 μmol/L to 100 nmol/L in 0.1% DMSO and incubated for 72 hours in complete medium. The effects on proliferation were determined by addition of MTS reagent (Promega) according to the instruction, incubation for 2 hours at 37° C. in CO2 incubator, and record the absorbance at 490 nm using an ELISA plate reader.

Raji = assay: Tumor cell proliferation (MTS), Raji; type: cell-based; conditions: Homo sapiens, 72 hours
Description: as §2, §3

Cc1[nH]c(/C=N/N=C2\C(=O)Nc3ccc(F)cc32)c(C)c1C(=O)NCCCCNc1ccc(C(=O)Nc2ccccc2N)cn1 [Example 10, N-(2-aminophenyl)-6-(4-(2-(((5-fluoro-2-oxoindolin-3-ylidene)hydrazono)-methyl)-3,5-dimethyl-1H-pyrrole-4-carboxamido)butylamino)nicotinamide]
GI50 [1]: > 1000 nM
GI50 (PDGFRβ NIH-3T3 cells): > 1000 nM
IC50 (c-Kit): > 1000 nM
Class I HDAC (P21 reporter assay) % Max Resp of CS055 at 3 μM (Class I HDAC): 7.3%
HDAC4/5 (MEF2 reporter assay) % Max Resp of CS055 at 3 μM (HDAC4/5): 12.8%
GI50 (Hut-78): > 60 µM
GI50 (Raji): > 60 µM

Cc1[nH]c(/C=N/N=C2\C(=O)Nc3ccc(F)cc32)c(C)c1C(=O)NCCNc1ccc(C(=O)Nc2ccc(F)cc2N)cn1 [Example 14, N-(2-amino-4-fluorophenyl)-6-(2-(2-(((5-fluoro-2-oxoindolin-3-ylidene)-hydrazono)methyl)-3,5-dimethyl-1H-pyrrole-4-carboxamido)ethylamino)nicotinamide]
GI50 [1]: > 1000 nM
GI50 (PDGFRβ NIH-3T3 cells): > 1000 nM
IC50 (c-Kit): > 1000 nM
Class I HDAC (P21 reporter assay) % Max Resp of CS055 at 3 μM (Class I HDAC): 2.1%
HDAC4/5 (MEF2 reporter assay) % Max Resp of CS055 at 3 μM (HDAC4/5): 2.4%
GI50 (Hut-78): > 60 µM
GI50 (Raji): > 60 µM

Cc1[nH]c(/C=N/N=C2\C(=O)Nc3ccc(F)cc32)c(C)c1C(=O)NCCCNc1ccc(C(=O)Nc2ccccc2N)cn1 [Example 7, N-(2-aminophenyl)-6-(3-(2-(((5-fluoro-2-oxoindolin-3-ylidene)hydrazono)-methyl)-3,5-dimethyl-1H-pyrrole-4-carboxamido)propylamino)nicotinamide]
GI50 [1]: > 1000 nM
GI50 (PDGFRβ NIH-3T3 cells): > 1000 nM
IC50 (c-Kit): > 1000 nM
Class I HDAC (P21 reporter assay) % Max Resp of CS055 at 3 μM (Class I HDAC): 6.2%
HDAC4/5 (MEF2 reporter assay) % Max Resp of CS055 at 3 μM (HDAC4/5): 2.6%
GI50 (Hut-78): > 60 µM
GI50 (Raji): > 60 µM

Cc1[nH]c(/C=C2\C(=O)Nc3ccc(F)cc32)c(C)c1C(=O)NCCCNc1ccc(C(=O)Nc2ccccc2N)cn1 [Example 6, (Z)-N-(2-aminophenyl)-6-(3-(2-((5-fluoro-2-oxoindolin-3-ylidene)methyl)-3,5-dimethyl-1H-pyrrole-4-carboxamido)propylamino)nicotinamide]
GI50 [1]: 46 nM
GI50 (PDGFRβ NIH-3T3 cells): > 1000 nM
IC50 (c-Kit): 76 nM
EC50 (Class I HDAC): 2.5 µM
Class I HDAC (P21 reporter assay) % Max Resp of CS055 at 3 μM (Class I HDAC): 74.6%
EC50 (HDAC4/5): 1 µM
HDAC4/5 (MEF2 reporter assay) % Max Resp of CS055 at 3 μM (HDAC4/5): 44.2%
GI50 (Hut-78): > 60 µM
GI50 (Raji): 3.45 µM

Cc1[nH]c(/C=C2\C(=O)Nc3ccc(F)cc32)c(C)c1C(=O)NCCCCNc1ccc(C(=O)Nc2ccccc2N)cn1 [Example 9, (Z)-N-(2-aminophenyl)-6-(4-(2-((5-fluoro-2-oxoindolin-3-ylidene)methyl)-3,5-dimethyl-1H-pyrrole-4-carboxamido)butylamino)nicotinamide]
GI50 [1]: 32 nM
GI50 (PDGFRβ NIH-3T3 cells): 105 nM
IC50 (c-Kit): 23 nM
EC50 (Class I HDAC): 13.4 µM
Class I HDAC (P21 reporter assay) % Max Resp of CS055 at 3 μM (Class I HDAC): 89.1%
EC50 (HDAC4/5): 20 µM
HDAC4/5 (MEF2 reporter assay) % Max Resp of CS055 at 3 μM (HDAC4/5): 53.6%
GI50 (Hut-78): 1.67 µM
GI50 (Raji): > 60 µM

Cc1[nH]c(/C=C2\C(=O)Nc3ccc(F)cc32)c(C)c1C(=O)NCCCNc1ccc(C(=O)Nc2ccc(F)cc2N)cn1 [Example 16, (Z)-N-(2-amino-4-fluorophenyl)-6-(3-(2-((5-fluoro-2-oxoindolin-3-ylidene)-methyl)-3,5-dimethyl-1H-pyrrole-4-carboxamido)propylamino)nicotinamide]
GI50 [1]: 105 nM
GI50 (PDGFRβ NIH-3T3 cells): > 1000 nM
IC50 (c-Kit): 242 nM
Class I HDAC (P21 reporter assay) % Max Resp of CS055 at 3 μM (Class I HDAC): 2.5%
HDAC4/5 (MEF2 reporter assay) % Max Resp of CS055 at 3 μM (HDAC4/5): −0.2%
GI50 (Hut-78): > 60 µM
GI50 (Raji): > 60 µM

Cc1[nH]c(/C=N/N=C2\C(=O)Nc3ccc(F)cc32)c(C)c1C(=O)NCCCCNc1ccc(C(=O)Nc2ccc(F)cc2N)cn1 [Example 20, N-(2-amino-4-fluorophenyl)-6-(4-(2-(((5-fluoro-2-oxoindolin-3-ylidene)-hydrazono)methyl)-3,5-dimethyl-1H-pyrrole-4-carboxamido)butylamino)nicotinamide]
GI50 [1]: > 1000 nM
GI50 (PDGFRβ NIH-3T3 cells): > 1000 nM
IC50 (c-Kit): > 1000 nM
Class I HDAC (P21 reporter assay) % Max Resp of CS055 at 3 μM (Class I HDAC): 2.8%
HDAC4/5 (MEF2 reporter assay) % Max Resp of CS055 at 3 μM (HDAC4/5): 16.3%
GI50 (Hut-78): > 60 µM
GI50 (Raji): > 60 µM

Cc1[nH]c(/C=C2\C(=O)Nc3ccc(F)cc32)c(C)c1C(=O)NCCNc1ccc(C(=O)Nc2ccc(F)cc2N)cn1 [Example 13, (Z)-N-(2-amino-4-fluorophenyl)-6-(2-(2-((5-fluoro-2-oxoindolin-3-ylidene)-methyl)-3,5-dimethyl-1H-pyrrole-4-carboxamido)ethylamino)nicotinamide]
GI50 [1]: 151 nM
GI50 (PDGFRβ NIH-3T3 cells): > 1000 nM
IC50 (c-Kit): 534 nM
Class I HDAC (P21 reporter assay) % Max Resp of CS055 at 3 μM (Class I HDAC): 2.1%
HDAC4/5 (MEF2 reporter assay) % Max Resp of CS055 at 3 μM (HDAC4/5): 0.5%
GI50 (Hut-78): > 60 µM
GI50 (Raji): > 60 µM

— patent US8158656B2, “2-indolinone derivatives as multi-target protein kinase inhibitors and histone deacetylase inhibitors” (Shenzhen Chipscreen Biosciences Ltd., priority 2008, dated 2012)
